Series [1] has as its system endogenous clozapine-binding sites. Description: Autoradiography: displacement of [3H]clozapine in WT / non-DREADD mouse brain tissue. Particulars: individual values. From the text: (§1) Flash frozen tissue (both rodents and the monkey) was sectioned (20 µm) on a cryostat (Leica, Germany) and thaw mounted onto ethanol-washed glass slides. […] Slides were air dried and placed in a Hypercassette™ (Amersham Biosciences) and covered with a BAS-TR2025 Storage Phosphor Screen (FujiFilm, Japan). The slides were exposed to the screen for 5–7 days and imaged using a phosphor imager (Typhoon FLA 7000; GE Healthcare).

In another series the target is T1, hM4Di (Homo sapiens, UniProt P08173, A203G/Y113C).
T1 sequence (P08173 1-479 Y113C/A203G): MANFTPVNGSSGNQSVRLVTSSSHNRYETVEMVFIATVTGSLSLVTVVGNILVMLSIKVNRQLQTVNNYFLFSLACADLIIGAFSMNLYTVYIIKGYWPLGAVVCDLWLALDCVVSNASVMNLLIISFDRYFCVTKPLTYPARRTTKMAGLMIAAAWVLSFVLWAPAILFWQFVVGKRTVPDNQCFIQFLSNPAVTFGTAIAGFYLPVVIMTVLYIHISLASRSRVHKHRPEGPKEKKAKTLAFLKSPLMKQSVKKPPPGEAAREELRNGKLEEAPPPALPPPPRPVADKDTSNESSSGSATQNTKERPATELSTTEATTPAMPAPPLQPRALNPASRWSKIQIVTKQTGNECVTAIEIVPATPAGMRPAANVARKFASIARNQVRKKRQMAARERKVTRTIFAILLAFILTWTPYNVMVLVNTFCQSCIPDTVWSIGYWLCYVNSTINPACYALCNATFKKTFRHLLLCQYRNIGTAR
Description: [11C]clozapine PET occupancy in monkey expressing hM4Di in the amygdala. The format is in vivo, rhesus monkey (Macaca mulatta). Details: expressed in transfected cells; host or cells: rhesus monkey (Macaca mulatta) right amygdala, lentivirus-transduced neurons. The protocol:
Lentivirus expressing an hM4Di-CFP fusion protein under an hSyn promoter[11] with a titer of >10^9 infectious particles was loaded into a 100 µL glass syringe (Hamilton Co., MA). The 31-gauge needle of the syringe was sheathed with a silica capillary (450 µm OD) to create a step 1 mm from the base of the aperture. The syringe was mounted in a Nanomite pump (Harvard Apparatus, Cambridge, MA). The needle was lowered through the incision in the dura mater to each of the pre-calculated target sites and 10 or 20 µL was infused at a rate of 1 µL min^−1. Each monkey received a total of between 10 and 12 injections (for a total injection volume of 120–240 µL). Post-infusion, the needle was left in situ for 10 min after each injection to allow pressure from the infusate to dissipate. The needle was then slowly removed. At the completion of the injection series the soft tissues were sutured together in anatomical layers.
(§2) All macaque studies were acquired dynamically on the Focus 220 PET scanner (Siemens Medical Solutions, Knoxville, TN). The Focus 220 is a dedicated pre-clinical scanner with a transaxial FOV of 19 cm and an axial FOV of 7.5 cm. Image resolution is <2 mm within the central 5 cm FOV.
(§3) After initial evaluation the monkey was sedated with ketamine (10 mg kg^−1) followed by ketoprofen (as an analgesic) and glycopyrrolate (for salvia reduction), all weight dependent IM injections. The monkey would then be placed in the supine position, intubated with a tracheal tube. Anesthesia was maintained by 1–3.5% isoflurane and oxygen, the monkey’s head was positioned and immobilized for optimal positioning of the brain and moved into the scanner. A 10-min transmission scan using a Co-57-point source for attenuation correction was performed. One iv was inserted, if possible, in the right arm and one in the right leg for injection of tracer and blocking agent. The monkey was always monitored while anesthetized. HR, BP, O2 saturation, RR, three lead ECG, rectal temperature was documented every 15 min.
Arterial blood sampling was acquired throughout the study using an indwelling femoral port. The first 2 min samples were collected every 15 s then at 3, 5, 10, 30, 60, 90, and 120 min post tracer injection. All scans were acquired for 120 min using list mode acquisition.
Scan data were histogrammed into 33 frames (6 × 30 s, 3 × 1 min, 2 × 2 min, and 22 × 5 min). Reconstruction was performed by Filtered Back Projection with scatter correction. After completion of the last study of the day, isoflurane was cut off. The monkey was gradually awakened, moved to the housing facility and fully recovered.

The subject of a further series is endogenous binding sites. The class given is in vivo. Particulars: monkey. The protocol: as §2, §3
Arterial blood sampling was acquired throughout the study using an indwelling femoral port. The first 2 min samples were collected every 15 s then at 3, 5, 10, 30, 60, 90, and 120 min post tracer injection. All scans were acquired for 120 min using list mode acquisition. […]
To determine the arterial input function for the radiotracers injected in rhesus monkeys radioligand concentrations in the arterial plasma were corrected by the unchanged parent fraction. […] The unchanged plasma parent fractions were determined by radio-HPLC on an X-terra® C18 column (10 µm, 7.8 mm × 300 mm, Waters Corp., Milford, MA), and eluted with MeOH:H2O:Et3N (80:20:0.1; by volume) at an isocratic flow rate of 4.0 mL min^−1. Eluates were monitored with an in-line flow-through NaI(Tl) scintillation detector (Bioscan). Data were stored and analyzed on a PC using the software “Bio-ChromeLite”. […] Plasma free fraction was determined according to our previous methods.

A further series addresses hM3Dq (Homo sapiens, UniProt P20309, A239G/Y149C). Description: Autoradiography: displacement of [3H]clozapine from hM3Dq in mouse brain sections. The class given is binding. Details: 026220; host or cells: mouse brain, dopamine D1 receptor-expressing neurons (transgene). The note with it: hM3Dq and hM4Di; up to 10 nM.
Source text: as §1
(Displacement assays read how much labelled ligand stays bound in the presence of the test substance.)

Another series has as its system WT mice. Description: [18F]FDG PET metabolic mapping in WT mice. The class given is in vivo, mouse. The protocol: Mice (D1-hM3Dq, D1-hM4Di or WT littermates, see above) were habituated to experimenter handling and fasted 16 h before the experiment. On the day of the experiment, mice received an IP injection of vehicle (1 ml kg^−1) and were placed back into their home cages. Ten minutes later, mice were injected (IP) with 11 MBq of 2-deoxy-2-[^18F]fluoro-D-glucose (FDG, Cardinal Health) and placed back into their home cages. After 30 min, mice were anesthetized with 1.5% isoflurane, placed on a custom-made bed of a nanoScan small animal PET/CT scanner (Mediso Medical Imaging Systems) and scanned for 20 min on a static acquisition protocol, followed by a CT scan. […] Voxel-based repeated measures with Student’s t test comparing baseline to drug were performed, and the resulting parametric images were filtered for statistically significant (p < 0.05) clusters larger than 100 contiguous voxels. All statistical parametric mapping analyses were performed using Matlab R2016 (Mathworks) and SPM12 (University College London).

Each structure is given as a SMILES string. Values joined by “and” are separate entries in the source; they are usually repeats but may differ in a detail not shown here. Identical values can stand only once.

Sequence of hM3Dq (P20309 whole entry Y149C/A239G): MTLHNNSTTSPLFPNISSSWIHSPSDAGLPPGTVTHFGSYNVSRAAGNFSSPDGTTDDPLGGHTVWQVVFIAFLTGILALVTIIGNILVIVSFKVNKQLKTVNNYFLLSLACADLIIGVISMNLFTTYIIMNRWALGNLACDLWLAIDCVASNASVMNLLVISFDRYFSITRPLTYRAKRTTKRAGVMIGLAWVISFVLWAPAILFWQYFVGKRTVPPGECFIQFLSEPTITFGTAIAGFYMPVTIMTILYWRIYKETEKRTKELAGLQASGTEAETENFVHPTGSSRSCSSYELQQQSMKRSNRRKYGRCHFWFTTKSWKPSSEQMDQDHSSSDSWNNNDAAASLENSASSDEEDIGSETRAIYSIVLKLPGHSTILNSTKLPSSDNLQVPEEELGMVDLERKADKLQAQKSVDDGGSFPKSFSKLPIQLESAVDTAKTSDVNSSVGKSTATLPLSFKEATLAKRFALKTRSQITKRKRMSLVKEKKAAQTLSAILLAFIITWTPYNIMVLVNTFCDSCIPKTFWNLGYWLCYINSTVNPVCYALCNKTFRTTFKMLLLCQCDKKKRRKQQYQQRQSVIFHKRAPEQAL

Consider `CCN1CCN(C2=Nc3cc(Cl)ccc3Nc3c(F)cccc32)CC1` [JHU37160, 8-Chloro-11-(4-ethylpiperazin-1-yl)-4-fluoro-5H-dibenzo[b,e][1,4]diazepine], for which the “[3H]CLZ binding in mouse brain sections, WT” value in series [1] (competitor concentration 0.001, listed as J60) was 106.379 and 101.292 and 102.926 and 122.941 and 108.508 and 97.311; in series [1] (competitor concentration 0.01, listed as J60), 120.43 and 105.789 and 111.318 and 118.633 and 118.689 and 124.215; in series [1] (competitor concentration 1, listed as J60), 55.5737 and 82.7293 and 46.5386 and 44.7797 and 54.5308 and 62.9299. Also, the “[11C]clozapine displacement at hM4Di expressed in the amygdala” value at hM4Di (0.1 mg kg-1 (lesser extent 0.01 mg kg-1)) was “produced [^11C]clozapine DREADD displacement at hM4Di”. The “[11C]clozapine binding after drug, R_Amygdala” value at hM4Di (0.1 mg kg-1, hM4Di-expressing region) was 0.6176. Moreover, in the series on endogenous binding sites (0.1 mg kg-1), the “[11C]clozapine binding after drug, L_Amygdala” value is on record as 0.2865. Also, the “[11C]clozapine binding after drug, PFC” value with endogenous binding sites (0.1 mg kg-1) is recorded as 0.3429. The “in situ [3H]clozapine displacement in brain tissue from WT and D1-DREADD mice” value at hM3Dq was “selective [^3H]clozapine displacement from DREADDs and not from other clozapine-binding sites”. Further, the “brain metabolic activity ([18F]FDG)” value in the series with WT mice (0.1 mg/kg) is “no significant brain metabolic changes”; in the series on WT mice (0.1 mg/kg, listed as J60, 0.1 mg/kg), “did not show any significant changes in brain metabolic activity”.

Consider `CCN1CCN(C2=Nc3cc(Cl)ccc3Nc3cccc(F)c32)CC1` [JHU37152, 8-Chloro-11-(4-ethylpiperazin-1-yl)-1-fluoro-5H-dibenzo[b,e][1,4]diazepine], for which the “[3H]CLZ binding in mouse brain sections, WT” value in series [1] (competitor concentration 0.001, listed as J52) is 119.578 and 91.3526 and 103.192 and 105.979 and 100.87 and 101.941; in series [1] (competitor concentration 0.01, listed as J52) it was 85.3632 and 98.6721 and 100.487 and 96.5233 and 115.016 and 88.1843; in series [1] (competitor concentration 1, listed as J52), 68.3087 and 51.6943 and 71.7816 and 75.1729 and 78.8993 and 70.8806. At hM3Dq, the “in situ [3H]clozapine displacement in brain tissue from WT and D1-DREADD mice” value is “selective [^3H]clozapine displacement from DREADDs and not from other clozapine-binding sites”.

With `c1ccc2c(c1)N=C(N1CCNCC1)c1ccccc1N2` [C21], the “in vivo DREADD occupancy” value on hM4Di (1 mg/kg IV) is “no measurable occupancy”. Also, the hM4Di occupancy at hM4Di (10 mg/kg) is reported as ~ 50%. Moreover, the off-target effects result in the series on endogenous binding sites (10 mg/kg) is “extensive displacement of [^11C]clozapine binding at endogenous binding sites and non-specific effects”. The “brain metabolic activity ([18F]FDG)” value is “significant changes in brain metabolic activity” with WT mice (1 mg/kg IP, 1 mg/kg) and “decreased metabolic activity of multiple networks” with WT mice (1 mg/kg IP, listed as Compound 21, 1 mg/kg).
